For one data set, the system named is mEV71. Description: LNA antagomiR injection in EV71 infection mouse model: mice survival. Format: in vivo, C57BL/6 mice. The text has this: (§1) The sequence of LNA antagomiR-146a used in the example is 5′-[…]-3′ (SEQ ID NO:20). Even though the importance of miR-146a in EV71 pathogenesis was clearly elucidated by using miR-146a^−/− mice model, however, the therapeutic potential of miR-146a silencing should be practically evaluated in EV71 infection mouse model. LNA antagomiR-146a, designed locked nucleic acid, was first injected intraperitoneally to evaluate the potential adverse events caused by LNA antagomiRs. […] After making sure the safety of LNA antagomiRs, we next introduced LNA AntagomiR-146a into wild-type mice before or after virus infection as indicated and monitored clinical symptoms of mice daily. […] To verify whether attenuation of virus-induced miR-146a by LNA antagomiR-146a could restore the expression of miR-146a targets, IRAK1 and TRAF6 in assayed organs were measured by Western blot.
Mouse-adapted EV71 and LNA AntagomiRs Administration. C57BL/6 mice were provided by the Knockout Mouse Core Laboratory of National Taiwan University Center of Genomic Medicine, housed in specific pathogen-free animal rooms, and treated according to guidelines from the National Taiwan University College of Medicine and College of Public Health Institutional Animal Care and Use Committee (IACUC). Mouse-adapted EV71 (mEV71) was established referring to a report published by Wang, Y. F. in 2004. mEV71 was generated after four serial passages in neonate mice started from parental human EV71 Parental human EV71 was injected intraperitoneally and next generation mEV71, called 1st mEV71, was isolated from neonate mice brain tissue at 3 d.p.i. The isolated 1st mEV71 was then propagated in RD cells. The passage procedures were performed four times. To determine the 50% lethal dose (LD50), seven-day-old wild-type C57BL/6 mice were fed with indicated PFUs of mEV71. The survival of mice was monitored daily. For wild-type C57BL/6 mice and miR-146a−/− C57BL/6 mice inoculation, each group (n=9 to 13) housed in the same cage was infected with indicated PFUs of mEV71 through the oral route, and the control group was fed with culture medium. The animals were monitored daily, and clinical signs, weight and mortality were recorded. All mouse tissues were obtained from scarified mice with significant clinical illness signs or at 3 d.p.i. if mice had no significant illness signs. The tissues were further assayed for real-time RT-PCR, Western blot, plaque assay, immunohistochemistry staining, and so on. For LNA antagomiRs injection, wild-type mice were injected with LNA antagomiR-146a (1.2 mg/kg) or LNA antagomiR negative control (1.2 mg/kg) through the intraperitoneal route before or after virus infection as indicated and monitored daily. The institutional animal care and use committee (IACUC) approved all animal protocols.

The subject of data set [1] is IRAK1 and TRAF6. Briefly: IRAK1 and TRAF6 expression in organs of mEV71-infected mice by Western blot. The settings on record: specifically heart, lung and muscle. Format: in vivo, C57BL/6 mice.
Text: as §1
Western Blot. Cells or tissues were harvested in RIPA lysis buffer [50 mM Tris-HCl (pH 7.4), 150 mM NaCl, 1 mM EDTA, 1% Triton X-100, 0.1% SDS, 1% sodium deoxycholate, 1 mM PMSF, and protease inhibitor cocktail], and the protein concentration was measured by the BCA protein assay (BioRad). […]
Mouse-adapted EV71 and LNA AntagomiRs Administration. […] The survival of mice was monitored daily. […] The animals were monitored daily, and clinical signs, weight and mortality were recorded. […]

The nature of data set [2]: Potential adverse events of LNA antagomiRs: HE staining and blood chemistry (liver, kidney, serum). The following applies: intraperitoneal injection. Format: in vivo, mice.
Text: as §1
Mouse-adapted EV71 and LNA AntagomiRs Administration. […] The survival of mice was monitored daily. […] The animals were monitored daily, and clinical signs, weight and mortality were recorded. […] For LNA antagomiRs injection, wild-type mice were injected with LNA antagomiR-146a (1.2 mg/kg) or LNA antagomiR negative control (1.2 mg/kg) through the intraperitoneal route before or after virus infection as indicated and monitored daily. […]

Data set [3] relates to IFNβ. Description: IFNβ expression in EV71-infected mice by real-time RT-PCR. The data set is classed as in vivo, C57BL/6 mice. The settings on record: EV71-infected wild-type mice treated at 0 and 1 d.p.i., vs mock infection and negative control.
Text: as §1
(§2) Individual Real-Time RT-PCR. Quantification of miR-146a, Homo RNU6B, mus U6 snRNA , mus IFNβ, and mus β-actin were performed using TaqMan microRNA individual assays or TaqMan gene expression assays (000468, 001093, 001973, Mm00439546_s1 and Mm00607939_s1; Life Technologies) according to the manufacturer's instructions. […] The threshold cycle (CT) is defined as the fractional cycle number at which the fluorescence passes the fixed threshold. […]
(§3) Mouse-adapted EV71 and LNA AntagomiRs Administration. […] The survival of mice was monitored daily. […]

The next data set deals with miR-146a. Description: miR-146a expression in organs of mEV71-infected mice by real-time RT-PCR. Format: in vivo, C57BL/6 mice. The settings on record: treatment at 0 and 1 d.p.i.; particularly intestine, muscle and lung; vs mock infection / negative control.
Text: as §1, §2, §3

Data set [4] concerns IFNβ. Description: IFNβ mRNA expression in EV71-infected RD cells by real-time RT-PCR. The data set is classed as cell-based, Human. The settings on record: antagomiR-146a transfectants, EV71 infection.
For another data set, the system named is IFNβ promoter. Description: IFNβ promoter luciferase assay in EV71-infected RD cells. The data set is classed as cell-based, Human. The settings on record: henceforth 4 h.p.i., compared with negative control or mock transfection. As to the method: Luciferase Assay. All transfections were carried out in triplicate in 96-well plates. RD cells (1×10^4 per well) were seeded 24 h prior to transfection. The luciferase reporter constructs along with the control plasmids (pRL-TK Vector; Promega) were co-transfected into cells at the DNA ratio 5:1 in the presence of pSilencer miRNA expressing vectors (Life Technologies) as indicated by Lipofectamine LTX reagent (Life Technologies). After 48 h incubation, the Dual-Glo luciferase substrate (Promega) was added to each well and the luminescent signals were measured by Victor3 multilabel counter (PerkinElmer) according to the manufacturer's instructions. For IFNβ promoter assays, the reporter constructs were co-transfected with antagomiR-NC or antagomiR-146a into RD cells prior to virus infection. After 24 h incubation, all transfectants were infected with EV71 and assayed at indicated time points. The activity of Renilla luciferase was used as an internal control to normalize transfection efficiency.

Data set [5] has as its system IRAK1 and TRAF6. Briefly: IRAK1 and TRAF6 Western blot in EV71-infected Caco-2 cells. The settings on record: compared with negative controls. The data set is classed as cell-based, Human.
In the next data set the test system is TRAF6 and IRAK1. Description: TRAF6 and IRAK1 in mEV71-infected MEF cells. The data set is classed as cell-based. The following applies: MEF cells transfected, then mEV71 infection; vs antagomiR-NC. The text has this: MEF cells were infected with mEV71, followed by quantification of miR-146a using real-time RT-PCR (n=3). MI, mock infection. * P-value <0.05 as compared with mock infection. (b) mEV71 infection suppressed IRAK1 and TRAF6 expressions in protein level in MEF cells. (c) Predicted mus miR-146a BSs within mus IRAK1 and TRAF6 3′UTRs (the first nucleotide following the stop codon was designated as +1). (d) The effect of the ectopic miR-146a on the endogenous IRAK1 and TRAF6. MEF cells were transfected with the miR-146a overexpressing vector or negative control and assayed for IRAK1 and TRAF6 and for miR-146a by western blot and real-time RT-PCR, respectively (n=3). MT, mock transfection; NC, negative control. (e) AntagomiR-146a restored mEV71-induced suppression of TRAF6 and IRAK1 in MEF cells. MEF cells were transfected with antagomiR-146a or antagomiR-NC followed by mEV71 infection. All data presented are mean±s.d. and all P-values are calculated by Student's t-test.

Data set [6] deals with IRAK1 and TRAF6. Description: IRAK1 and TRAF6 Western blot in EV71-infected RD cells. The data set is classed as cell-based, Human. The following applies: antagomiR transfected into host cells followed by virus infection.

Entries after “also recorded” stand apart in the source; their conditions may differ.

As for “5′-AACCCATGGAATTCAGTTCTCA-3′ (LNA-modified, pattern not given here) [LNA antagomiR-146a, designed locked nucleic acid miR-146a antagonist, 22 nucleotides]”, the survival with mEV71 (injection 1 hour before virus infection (0 d.p.i.), 1.2 mg/kg intraperitoneal, 2*10^8 PFU mEV71) was 80%; in the data set with mEV71 (injection at 1 d.p.i., 1.2 mg/kg intraperitoneal, 2*10^8 PFU mEV71), 70%; in the data set with mEV71 (injection at 2 d.p.i., 1.2 mg/kg intraperitoneal), 56%; in the data set on mEV71 (injection at 3 d.p.i.) it was “did not improve mice survival”. Besides, in the data set with mEV71 (intraperitoneal, injected before (0 d.p.i.) or after (1 and 2 d.p.i.) virus infection), the survival probability result is on record as “improves survival probability”. Moreover, in the data set on IRAK1 and TRAF6 [1], the “IRAK1 and TRAF6 expression” value is “restored”. Besides, in data set [2], the “pathological changes (HE staining and blood chemistry of liver, kidney, serum)” value is listed as “no significant pathological changes”. Also, the IFNβ expression entry is recorded as “regain of IFNβ production” in the data set with IFNβ [3] and “induced” in the data set with IFNβ [3] (listed as LNA is antagomiR-146a). The “virus-induced miR-146a expression” value in the data set with miR-146a is “neutralized; also recorded: dramatically suppressed”.
With “antagomiR-146a: specific antagomiR (Life Technologies) transfected into cells to neutralize virus-induced miR-146a (antisense AACCCATGGAATTCAGTTCTCA; LNA-modified, pattern not given here)”, the “IFNβ mRNA expression” value in the data set with IFNβ [4] was “increased dramatically”; in the data set with IFNβ [4] (listed as AntagomiR-146a), “eliminated the suppression”. The results for the IFNβ promoter activity result with IFNβ promoter and with IFNβ promoter (listed as AntagomiR-146a) were “attenuated” and “restored”, respectively. The “IRAK1 and TRAF6 expression” value in the data set on IRAK1 and TRAF6 [5] is listed as “restored”; in the data set with IRAK1 and TRAF6 [5] (listed as AntagomiR-146a), “restores”; in the data set on IRAK1 and TRAF6 [6], “restored”; with IRAK1 and TRAF6 [6] (listed as AntagomiR-146a), “recovered remarkably”. Moreover, the “mEV71-induced suppression of TRAF6 and IRAK1” value with TRAF6 and IRAK1 was “restored”.

Values taken from patent publication US20160289678A1, “USE OF MICRORNA 146-A IN THE DIAGNOSIS, TREATMENT AND PREVENTION OF PICORNAVIRUS INFECTION AND MICRORNA 146-A ANTAGONISTS” (priority 2013, published 2016).
